The record followed here is patent EP4755890A1, “OXO-TRICYCLIC DERIVATIVE AND PHARMACEUTICAL USE THEREOF” (Haisco Pharmaceutical Group Co., Ltd., priority 2023, dated 2025).

The target of data set [1] is T1, WRN protein (AA N517-P1238, ICE, Cat. S2212T-H56HZ) (Homo sapiens, UniProt Q14191).
T1 construct: WRN protein (AA N517-P1238, ICE, Cat. S2212T-H56HZ); purchased ICE S2212T-H56HZ
In words: Assay for WRN helicase activity (FORKF dsDNA unwinding, fluorescence). It is filed as biochemical. Particulars: inhibition of WRN helicase activity; 10 nM WRN, 10 nM FORKF, 2 mM ATP. The procedure: The assay buffer working solution prepared with RNAase-free water was as follows: 25 mM Tris (pH 7.5), 2 mM MgCl2, 50 mM NaCl, 0.02% BSA, 0.01% Tween, and 1 mM DTT. WRN protein (AA N517-P1238, ICE, Cat. S2212T-H56HZ) was obtained through protein expression and purification in vitro. Two single-stranded DNAs were synthesized: […]-BHQ2 (quencher), and (fluorophore) TAMRA-[…]. dsDNA (FORKF) was obtained via annealing of the two single-stranded DNAs. When the WRN protein bound to FORKF, the dsDNA was unwound, exposing the fluorophore, thereby generating fluorescence. 2 µL of compounds at different concentrations and 4 µL of WRN protein were added to a 384-well black plate (Greiner, Cat#784075). The plate was pre-incubated at room temperature for 20 minutes. 2 µL each of ATP and the FORKF substrate were added. The working concentrations of the WRN protein, FORKF, and ATP were 10 nM, 10 nM, and 2 mM, respectively. The plate was incubated at room temperature for 20 minutes. After the incubation was completed, the fluorescence value was read at Ex 540 nm/Em 590 nm using a BMG microplate reader (PHERAstar FSX).
The inhibition rate was calculated according to Formula 2, where RLUsample is the readout of the compound well, RLUmax is the readout of the DMSO control well, and RLUmin is the readout of the control well without the WRN protein. Curve fitting was performed via a four-parameter logistic model using GraphPad Prism software, and the IC50 value (the concentration of the compound when the inhibition rate was 50%) was calculated. Inhibition% = (1−(RLUsample−RLUmin)/(RLUmax−RLUmin)) × 100% [formula] Table 2. Results of inhibitory activity of test compounds against WRN helicase activity

The nature of data set [2]: Mouse pharmacokinetic assay. It is filed as in vivo, Balb/c mice. The note with it: po, mouse plasma, i.g. (10 mg/kg). The procedure:
4.1. Experimental animals: Male Balb/c mice, about 22 g, 6-8 weeks old, 6 mice/compound. The animals were purchased from CHENGDU DOSSY EXPERIMENTAL ANIMALS CO., LTD.
4.2. Experimental design: On the day of the experiment, the Balb/c mice were randomly grouped according to their body weights. The animals were fasted with water available for 12-14 h one day before the administration, and were fed 4 h after the administration. Table 4. Administration information
Vehicle for intravenous administration: 5% DMA + 5% Solutol + 90% Saline; and vehicle for intragastric administration: 5% DMSO + 95% (20% SBE-β-CD in Saline)
Before and after the administration, 0.03 ml of blood was taken from the orbit under isoflurane anesthesia and placed in an EDTAK2 centrifuge tube. The tube was centrifuged at 5000 rpm at 4°C for 10 min, and plasma was collected. The blood collection time points for the intravenous administration group and intragastric administration group were as follows: 0, 2 min, 5 min, 15 min, 30 min, 1 h, 2 h, 4 h, and 7 h. Before analysis and detection, all samples were stored at - 80°C. Table 5. Pharmacokinetic parameters of test compounds in mouse plasma

Data set [3] has as its target T2, WRN protein (AA N517-P1238, ICE) (Homo sapiens, UniProt Q14191).
T2 construct: WRN protein (AA N517-P1238, ICE); purchased ICE
In words: Assay for ATPase activity of WRN helicase (ADP-Glo). In kind it is biochemical. The note with it: inhibition of ATPase activity of WRN helicase; 0.3 nM WRN, 0.2 nM DNA substrate, 10 µM ATP. The procedure:
The assay buffer working solution was as follows: 30 mM Tris pH 7.5 + 0.02% BSA + 2 mM MgCl2 + 50 mM NaCl + 0.1% Pluronic® F127 + 1 mM DTT. WRN protein (AA N517-P1238, ICE) was obtained through protein expression and purification in vitro. A single-stranded DNA substrate ([…]) was synthesized in vitro. 1 µL each of compounds at different concentrations, the WRN protein, and the DNA substrate, together with 2 µL of ATP, were added to a 384-well white plate. The working concentrations of the WRN protein, the DNA substrate, and the ATP were 0.3 nM, 0.2 nM, and 10 µM, respectively. The plate was incubated at room temperature for 20 minutes. After the incubation was completed, the detection was performed in accordance with the instructions of the ADP-Glo Assay Kit (Promega), and the chemiluminescence value was read.
The inhibition rate was calculated according to Formula 1, where RLUsample is the readout of the compound well, RLUmax is the readout of the DMSO control well, and RLUmin is the readout of the control well without the WRN protein. Curve fitting was performed via a four-parameter logistic model (log(inhibitor) vs. response -- Variable slope) using GraphPad Prism software, and the IC50 value was calculated. Inhibition% = (1−(RLUsample−RLUmin)/(RLUmax−RLUmin)) × 100% [formula] Table 1. Results of inhibitory activity of test compounds against ATPase activity of WRN helicase
In general terms: In ADP-Glo the light output rises with the ADP produced.

Data set [4] relates to SW48 cells. The data set is described as follows: SW48 cell proliferation inhibition assay (CellTiter-Glo). It is filed as cell-based. The note with it: Homo sapiens, 96 h, 4 days, read-out: Inhibitory activity against SW48 cell proliferation IC50. Here is the method: (§1) The culture conditions for SW48 cells were as follows: Leibovitz L15 + 10% FBS + 1% penicillin-streptomycin, and the cells were cultured in an incubator without CO2 at 37°C. On the first day, the SW48 cells in the exponential growth phase were collected and plated in 96-well cell culture plates at a density of 1000 cells/well (180 µL/well). The plates were cultured overnight in an incubator without CO2 at 37°C. T0 wells were plated simultaneously during the plating process. The next day, 20 µL of compounds at different concentrations were added to each well (nine compound concentration gradients, one DMSO well, and one blank well; each compound concentration was plated in triplicate), and the final concentration of DMSO in each well was 0.1%. The plates were cultured in an incubator without CO2 at 37°C for 4 days. On the same day of compound addition, the T0 plate was detected using the CellTiter-Glo Kit, and the detected value was recorded as RLU0. After the culture was completed, 100 µL of detection solution (Cell Viability Assay, Promega) was added to each well. The plates were incubated at room temperature for 10 minutes with slow shaking. The chemiluminescence reading was read using a BMG microplate reader (PHERAstar FSX). The results were processed according to Formula (5) to calculate the proliferation inhibition rate of compounds at each concentration. Curve fitting was performed via a four-parameter logistic model using GraphPad Prism software, and the GI50 value (the concentration of the compound when the proliferation inhibition rate was 50%) was calculated. In the formula, RLUcompound is the readout of the drug-treated group, RLUcontrol is the average value of the compound vehicle control group, and RLUBlank is the average value of the blank control group. [formula] Table 3. Results of inhibitory activity of test compounds against cell proliferation
Background: Cellular ATP, detected with luciferase, serves as a proxy for viable cell number.

Data set [5] can be described thus: Beagle dog pharmacokinetic assay. Particulars: male, po; Beagle dog plasma, i.g. (3 mg/kg). It is filed as in vivo, Beagle dogs. The procedure: 7.1. Experimental animals: Male Beagle dogs, about 8-13 kg, 6 Beagle dogs/compound.
7.2. Experimental method: On the day of the experiment, the Beagle dogs were randomly grouped according to their body weights. The animals were fasted with water available for 14-18 h one day before the administration, and were fed 4 h after the administration. The animals were administered according to Table 6. Table 6. Administration information
Note: Vehicle for intravenous administration: 5% DMA + 5% Solutol + 90% Saline; and vehicle for intragastric administration: 5% DMSO + 95% (20% SBE-β-CD in Saline) (DMA: dimethylacetamide; Solutol: polyethylene glycol-15-hydroxystearate; Saline: normal saline; and MC: methylcellulose)
Before and after the administration, 1 ml of blood was taken from the jugular veins or limb veins and placed in an EDTAK2 centrifuge tube. The tube was centrifuged at 5000 rpm at 4°C for 10 min, and plasma was collected. The blood collection time points for the intravenous administration group and intragastric administration group were as follows: 0, 5 min, 15 min, 30 min, 1 h, 2 h, 4 h, 6 h, 8 h, 10 h, 12 h, 24 h, and 48 h. Before analysis and detection, all samples were stored at -80°C. The samples were analyzed quantitatively by LC-MS/MS. Table 7. Pharmacokinetic parameters of test compounds in Beagle dog plasma

For data set [6], the system named is HT-29 cells. The data set is described as follows: HT-29 cell proliferation inhibition assay (CellTiter-Glo). It is filed as cell-based. Particulars: Homo sapiens, 96 h, 4 days, read-out: Inhibitory activity against HT-29 cell proliferation IC50. The procedure:
as §1, with “HT-29” for “SW48”, “DMEM” for “Leibovitz L15”, “with 5%” for “without”, “(4)” for “(5)”, “[formula]” for “[formula] Table 3. Results of inhibitory activity of test compounds against cell proliferation”

A word on the AUC(0-t): it is the area under the concentration-time curve up to a stated or last time point. Read a low AUC(0-t) as low exposure. The term half-life denotes how long it takes for the measured level to halve. A higher half-life goes with slow loss.

T1 sequence (Q14191 517-1238, stated change not applied): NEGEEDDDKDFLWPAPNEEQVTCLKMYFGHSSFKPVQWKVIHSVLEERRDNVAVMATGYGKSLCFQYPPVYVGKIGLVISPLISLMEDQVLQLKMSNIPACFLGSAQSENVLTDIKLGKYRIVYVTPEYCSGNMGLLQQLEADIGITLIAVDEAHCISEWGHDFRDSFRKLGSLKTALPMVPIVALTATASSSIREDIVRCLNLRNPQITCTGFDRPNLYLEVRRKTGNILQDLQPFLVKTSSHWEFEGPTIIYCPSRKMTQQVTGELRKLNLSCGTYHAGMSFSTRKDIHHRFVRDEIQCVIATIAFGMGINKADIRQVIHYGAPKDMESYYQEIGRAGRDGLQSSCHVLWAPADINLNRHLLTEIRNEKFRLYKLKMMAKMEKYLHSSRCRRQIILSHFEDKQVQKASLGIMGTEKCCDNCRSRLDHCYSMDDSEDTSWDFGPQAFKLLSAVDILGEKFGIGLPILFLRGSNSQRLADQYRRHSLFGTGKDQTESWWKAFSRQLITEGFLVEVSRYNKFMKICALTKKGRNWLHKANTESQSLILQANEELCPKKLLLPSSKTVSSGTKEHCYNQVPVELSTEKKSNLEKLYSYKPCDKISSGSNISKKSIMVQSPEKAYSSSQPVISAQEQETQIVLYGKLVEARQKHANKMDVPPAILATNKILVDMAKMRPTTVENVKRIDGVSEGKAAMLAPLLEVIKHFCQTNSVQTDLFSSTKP
T2 sequence (Q14191 517-1238): as the sequence (Q14191 517-1238, stated change not applied) above

As for `Cc1cc(C(F)(F)F)ccc1NC(=O)C1CCCc2c(N3CCN(C(=O)c4ncnc(C)c4O)CC3)c(=O)n3nc(C4=CCOCC4)nc3n21` (single isomer, unassigned) [Compound 5-B], the IC50 in data set [1] was < 20 nM.
In data set [2] (in vivo), `Cc1ncnc(C(=O)N2CC3(CCN(c4c5n(c6nc(C7=CCOCC7)nn6c4=O)C(C(=O)Nc4ccc(C(F)(F)F)cc4Cl)CCC5)CC3)C2)c1O` (single isomer, unassigned) [Compound 14-B] gave an AUC(0-t) of 24200 ng·h/mL and a half-life of 5.41 h.
Turning to `Cc1ncnc(C(=O)N2CCN(c3c4n(c5nc(C6=CCOCC6)nn5c3=O)C(C(=O)Nc3ccc(C(F)(F)F)cc3Cl)CC4)CC2)c1O` (single isomer, unassigned) [Compound 6-B], in data set [1], the IC50 is < 20 nM.
On the same count and under the same terms, the result for `Cc1ncnc(C(=O)N2CCN(c3c4n(c5nc(C6=CCOCC6)nn5c3=O)C(C(=O)Nc3ccc(C(F)(F)F)cc3F)CCC4)CC2)c1O` (single isomer, unassigned) [Compound 15-B] reads < 20 nM; that for `Cc1ncnc(C(=O)N2CCN(c3c4n(c5nc(C6=CCOCC6)nn5c3=O)C(C(=O)Nc3ccc(C(F)(F)F)nc3Cl)CCC4)CC2)c1O` (single isomer, unassigned) [Compound 3-B], < 20 nM; that for `Cc1ncnc(C(=O)N2CCN(c3c4n(c5nc(C6=CCOCC6)nn5c3=O)C(C(=O)Nc3ccc(C(F)(F)F)c5c3CCC5)CCC4)CC2)c1O` (racemic) [Compound 28], < 20 nM.
With `O=C(Nc1ccc(C(F)(F)F)cc1Cl)C1CCCc2c(N3CCN(C(=O)c4ncccc4O)CC3)c(=O)n3nc(C4=CCOCC4)nc3n21` (single isomer, unassigned) [Compound 2-B], the IC50 in data set [3] is < 20 nM; in data set [1], < 20 nM; in data set [4], < 100 nM.
Regarding `[2H]C1([2H])N(C(=O)c2ncnc(C)c2O)C([2H])([2H])C([2H])([2H])N(c2c3n(c4nc(C5=CCOCC5)nn4c2=O)C(C(=O)Nc2ccc(C(F)(F)F)cc2Cl)CCC3)C1([2H])[2H]` (single isomer, unassigned) [Compound 7-B], the IC50 in data set [1] was < 20 nM; in data set [4] it was < 100 nM.
For `Cc1ncnc(C(=O)N2CCN(c3c4n(c5nc(C6=CCOCC6)nn5c3=O)C(C(=O)Nc3ccc(C(F)(F)F)cc3Cl)CCC4)CC2)c1O` (racemic) [Compound 1], in that order: 20 to 100 nM and < 100 nM.
In data set [2] (male, Balb/c), `CCc1c(N2CCN(C(=O)c3ncnc(C)c3O)CC2)c(=O)n2nc(C3=CCOCC3)nc2n1CC(=O)Nc1ccc(C(F)(F)F)cc1Cl` [HRO761, reference compound] had an AUC(0-t) of 9210 ng·h/mL and a half-life of 2.32 h. For the same compound, in data set [2] (male, Balb/c, read-out: F (%)), the bioavailability turned out to be 74.1%. The compound also came in with an AUC(0-t) in data set [5] of 10800 ng·h/mL.
Turning to `Cc1ncnc(C(=O)N2CCN(c3c4n(c5nc(C6=CCOCC6)nn5c3=O)C(C(=O)Nc3ccc(C(F)(F)F)cc3Cl)CCC4)[C@@H](C)C2)c1O` (single isomer, unassigned) [Compound 26-A], the IC50 is < 20 nM in data set [1], < 100 nM in data set [4] and ≥ 10000 nM in data set [6].
